Test results taken from EP0908457B1, “3-(1,2-benzisothiazol- and isoxazol-5-Y1)-2,4(1H,3H)-pyrimidinedione or thione and 3-(1,2-benzisothiazol- and isoxazol-5-y1)-4(3H)-pyrimidinone or thione herbicidal agents” (BASF AKTIENGESELLSCHAFT, priority 1997, dated 1999).

Columns and labels:
Cyperus iria = assay: Preemergence weed control under flooded paddy conditions, CYPIR (Rice Flatsedge); format: in vivo; conditions: preemergence, flooded paddy, rated three to four weeks after treatment
Sagittaria pygmaea, L. = assay: Preemergence weed control under flooded paddy conditions, SAGPY (Arrowhead (Pygmaea)); format: in vivo; conditions: preemergence, flooded paddy, rated three to four weeks after treatment
[1] = tested on: Echinochloa oryzoides (Ard.) Fritsch.; assay: Preemergence weed control under flooded paddy conditions, ECHORC (Watergrass (Calif.)); format: in vivo; conditions: preemergence, flooded paddy, rated three to four weeks after treatment; for herbicidal effect rating, ECHORC: meaning of each grade not given here
[2] = tested on: Oryza sativa, (L.) Tebonnet; assay: Rice tolerance to post-transplant applications under flooded paddy conditions (Example 187), ORYSAT (Rice, Tebonnet); conditions: rated three to four weeks after treatment
[3] = tested on: Monochoria vaginalis, Presl.; assay: Preemergence weed control under flooded paddy conditions, MOOVA (Monochoria); format: in vivo; conditions: preemergence, flooded paddy, rated three to four weeks after treatment
[4] = tested on: Cyperus serotinus, Rottb.; assay: Preemergence weed control under flooded paddy conditions, CYPSE (Flatsedge); format: in vivo; conditions: preemergence, rated three to four weeks after treatment

Row | Structure (SMILES) | CYPIR herbicidal effect rating (Cyperus iria; Rate 0.0620 kg/ha) | CYPIR herbicidal effect rating (Cyperus iria; Rate 0.1250 kg/ha) | CYPIR herbicidal effect rating (Cyperus iria; Rate 0.2500 kg/ha) | SAGPY herbicidal effect rating (Sagittaria pygmaea, L.; Rate 0.0620 kg/ha) | SAGPY herbicidal effect rating (Sagittaria pygmaea, L.; Rate 0.1250 kg/ha) | SAGPY herbicidal effect rating (Sagittaria pygmaea, L.; Rate 0.2500 kg/ha) | ECHORC herbicidal effect rating ([1]; Rate 0.0620 kg/ha) | ECHORC herbicidal effect rating ([1]; Rate 0.1250 kg/ha) | ECHORC herbicidal effect rating ([1]; Rate 0.2500 kg/ha) | ORYSAT herbicidal effect rating ([2]; Rate 0.0620 kg/ha) | ORYSAT herbicidal effect rating ([2]; Rate 0.1250 kg/ha) | ORYSAT herbicidal effect rating ([2]; Rate 0.2500 kg/ha) | herbicidal effect rating, ECHORC ([1]; 0.0313 kg/ha) | herbicidal effect rating, ECHORC ([1]; 0.0625 kg/ha) | herbicidal effect rating, ECHORC ([1]; 0.1250 kg/ha) | herbicidal effect rating, ECHORC ([1]; 0.2500 kg/ha) | herbicidal effect rating, ORYSAT (rice tolerance) ([2]; 0.0313 kg/ha) | herbicidal effect rating, ORYSAT (rice tolerance) ([2]; 0.0625 kg/ha) | herbicidal effect rating, ORYSAT (rice tolerance) ([2]; 0.1250 kg/ha) | herbicidal effect rating, ORYSAT (rice tolerance) ([2]; 0.2500 kg/ha) | also measured
1 | CNC.Cn1c(C(F)(F)F)cc(=O)n(-c2ccc3snc(COCC(=O)O)c3c2)c1=O [Example 296, Acetic acid, {{5-[3,6-dihydro-3-methyl-2,6-dioxo-4-(trifluoromethyl)-1(2H)-pyrimidinyl]-1,2-benzisothiazol-3-yl}methoxy}-, dimethylamine salt] | 7.0 | 7.0 | 7.0 | 0.0 | 5.0 | 7.0 | 0.0 | 2.0 | 4.0 | 0.0 | 0.0 | 2.0 | – | – | – | – | – | – | – | – | CYPIR herbicidal effect rating (Cyperus iria; Rate 0.0320 kg/ha): 6.0; SAGPY herbicidal effect rating (Sagittaria pygmaea, L.; Rate 0.0320 kg/ha): 0.0; ECHORC herbicidal effect rating ([1]; Rate 0.0320 kg/ha): 0.0; ORYSAT herbicidal effect rating ([2]; Rate 0.0320 kg/ha): 0.0; MOOVA herbicidal effect rating ([3]; Rate 0.0320 kg/ha): 9.0; MOOVA herbicidal effect rating ([3]; Rate 0.0620 kg/ha): 9.0; MOOVA herbicidal effect rating ([3]; Rate 0.1250 kg/ha): 9.0; MOOVA herbicidal effect rating ([3]; Rate 0.2500 kg/ha): 9.0
2 | Cc1ccc(OCC(=O)OC2CCCC2)c(-c2nsc3ccc(-n4c(=O)cc(C(F)(F)F)n(C)c4=O)cc23)c1 [Example 84, Cyclopentyl {{2-{5-[3,6-dihydro-3-methyl-2,6-dioxo-4-(trifluoromethyl)-1(2H)-pyrimidinyl]-1,2-benzisothiazol-3-yl}-p-tolyl}oxy}acetate] | – | – | – | – | – | – | – | – | – | – | – | – | 9.0 | 9.0 | 9.0 | 9.0 | 3.0 | 3.0 | 4.0 | 7.0 | –
3 | CNC.Cn1c(C(F)(F)F)cc(=O)n(-c2ccc3snc(COCC(=O)NS(C)(=O)=O)c3c2)c1=O [Example 295, Acetamide, 2-{{5-[3,6-dihydro-3-methyl-2,6-dioxo-4-(trifluoromethyl)-1(2H)-pyrimidinyl]-1,2-benzisothiazol-3-yl}methoxy}-N-(methylsulfonyl)-, dimethylamine salt] | 0.0 | 9.0 | 9.0 | 0.0 | 0.0 | 6.0 | 0.0 | 0.0 | 0.0 | 0.0 | 0.0 | 0.0 | – | – | – | – | – | – | – | – | MOOVA herbicidal effect rating ([3]; Rate 0.0620 kg/ha): 0.0; MOOVA herbicidal effect rating ([3]; Rate 0.1250 kg/ha): 9.0; MOOVA herbicidal effect rating ([3]; Rate 0.2500 kg/ha): 9.0
4 | Cn1c(C(F)(F)F)cc(=O)n(-c2ccc3snc(COCC(=O)NS(C)(=O)=O)c3c2)c1=O [Example 294, Acetamide, 2-{{5-[3,6-dihydro-3-methyl-2,6-dioxo-4-(trifluoromethyl)-1(2H)-pyrimidinyl]-1,2-benzisothiazol-3-yl}methoxy}-N-(methylsulfonyl)-] | 0.0 | 3.0 | 9.0 | 0.0 | 0.0 | 0.0 | 0.0 | 0.0 | 0.0 | 0.0 | 0.0 | 0.0 | – | – | – | – | – | – | – | – | CYPIR herbicidal effect rating (Cyperus iria; Rate 0.0320 kg/ha): 0.0; SAGPY herbicidal effect rating (Sagittaria pygmaea, L.; Rate 0.0320 kg/ha): 0.0; ECHORC herbicidal effect rating ([1]; Rate 0.0320 kg/ha): 0.0; ORYSAT herbicidal effect rating ([2]; Rate 0.0320 kg/ha): 0.0; MOOVA herbicidal effect rating ([3]; Rate 0.0320 kg/ha): 9.0; MOOVA herbicidal effect rating ([3]; Rate 0.0620 kg/ha): 9.0; MOOVA herbicidal effect rating ([3]; Rate 0.1250 kg/ha): 9.0; MOOVA herbicidal effect rating ([3]; Rate 0.2500 kg/ha): 9.0
5 | Cn1c(C(F)(F)F)cc(=O)n(-c2ccc3snc(CP(=O)(O)O)c3c2)c1=O [Example 92, {{5-[3,6-Dihydro-3-methyl-2,6-dioxo-4-(trifluoromethyl)-1(2H)-pyrimidinyl]-1,2-benzisothiazol-3-yl}methyl}phosphonic acid] | – | – | – | – | – | – | – | – | – | – | – | – | 4.0 | 6.0 | 9.0 | 9.0 | 3.0 | 5.0 | 6.0 | 6.0 | –
6 | Cn1c(C(F)(F)F)cc(=O)n(-c2ccc3snc(Cl)c3c2)c1=O [Example 37, 3-(3-Chloro-1,2-benzisothiazol-5-yl)-1-methyl-6-(trifluoromethyl)-2,4(1H,3H)-pyrimidinedione] | – | – | – | – | – | – | – | – | – | – | – | – | 4.0 | 7.0 | 8.0 | 9.0 | 0.0 | 1.0 | 1.0 | 1.0 | –
7 | Cc1ccc(OCC(=O)OC(C)C(C)(C)C)c(-c2nsc3ccc(-n4c(=O)cc(C(F)(F)F)n(C)c4=O)cc23)c1 (stereo not shown) [Example 85, 1,2,2-Trimethylpropyl {{2-{5-[3,6-dihydro-3-methyl-2,6-dioxo-4-(trifluoromethyl)-1(2H)-pyrimidinyl]-1,2-benzisothiazol-3-yl}-p-tolyl}oxy}acetate] | – | – | – | – | – | – | – | – | – | – | – | – | 8.0 | 9.0 | 9.0 | 9.0 | 0.0 | 0.0 | 0.0 | 1.0 | –
8 | Cn1c(C(F)(F)F)cc(=O)n(-c2ccc3snc(COC(=O)c4cccs4)c3c2)c1=O [Example 477, 2,4(1H,3H)-Pyrimidinedione, 3-[3-(hydroxymethyl)-1,2-benzisothiazol-5-yl]-1-methyl-6-(trifluoromethyl)-, 2-thiophenecarboxylate (ester)] | – | – | – | – | – | – | – | – | – | – | – | – | – | – | – | – | – | – | – | – | CYPIR herbicidal rating (Cyperus iria; 0.0320 kg/ha): 4.0; CYPIR herbicidal rating (Cyperus iria; 0.0620 kg/ha): 4.0; CYPIR herbicidal rating (Cyperus iria; 0.1250 kg/ha): 5.0; CYPIR herbicidal rating (Cyperus iria; 0.2500 kg/ha): 6.0; SAGPY herbicidal rating (Sagittaria pygmaea, L.; 0.0320 kg/ha): 0.0; SAGPY herbicidal rating (Sagittaria pygmaea, L.; 0.0620 kg/ha): 0.0; SAGPY herbicidal rating (Sagittaria pygmaea, L.; 0.1250 kg/ha): 0.0; SAGPY herbicidal rating (Sagittaria pygmaea, L.; 0.2500 kg/ha): 2.0; CYPSE herbicidal rating ([4]; 0.0320 kg/ha): 3.0; CYPSE herbicidal rating ([4]; 0.0620 kg/ha): 3.0; CYPSE herbicidal rating ([4]; 0.2500 kg/ha): 3.0; ECHORC herbicidal rating ([1]; 0.0320 kg/ha): 0.0; ECHORC herbicidal rating ([1]; 0.0620 kg/ha): 0.0; ECHORC herbicidal rating ([1]; 0.1250 kg/ha): 2.0; ECHORC herbicidal rating ([1]; 0.2500 kg/ha): 3.0; MOOVA herbicidal rating ([3]; 0.0320 kg/ha): 3.0; MOOVA herbicidal rating ([3]; 0.0620 kg/ha): 3.0; MOOVA herbicidal rating ([3]; 0.1250 kg/ha): 6.0; MOOVA herbicidal rating ([3]; 0.2500 kg/ha): 7.0
9 | COc1ccc(CC(=O)OCc2nsc3ccc(-n4c(=O)cc(C(F)(F)F)n(C)c4=O)cc23)cc1OC [Example 502, 2,4(1H,3H)-Pyrimidinedione, 3-[3-(hydroxymethyl)-1,2-benzisothiazol-5-yl]-1-methyl-6-(trifluoromethyl)-, (3,4-dimethoxyphenyl)acetate (ester)] | – | – | – | – | – | – | – | – | – | – | – | – | – | – | – | – | – | – | – | – | CYPIR herbicidal rating (Cyperus iria; 0.0320 kg/ha): 4.0; CYPIR herbicidal rating (Cyperus iria; 0.0620 kg/ha): 6.0; CYPIR herbicidal rating (Cyperus iria; 0.1250 kg/ha): 9.0; CYPIR herbicidal rating (Cyperus iria; 0.2500 kg/ha): 9.0; SAGPY herbicidal rating (Sagittaria pygmaea, L.; 0.0320 kg/ha): 0.0; SAGPY herbicidal rating (Sagittaria pygmaea, L.; 0.0620 kg/ha): 2.0; SAGPY herbicidal rating (Sagittaria pygmaea, L.; 0.1250 kg/ha): 5.0; SAGPY herbicidal rating (Sagittaria pygmaea, L.; 0.2500 kg/ha): 9.0; CYPSE herbicidal rating ([4]; 0.0320 kg/ha): 0.0; CYPSE herbicidal rating ([4]; 0.0620 kg/ha): 2.0; CYPSE herbicidal rating ([4]; 0.2500 kg/ha): 5.0; ECHORC herbicidal rating ([1]; 0.0320 kg/ha): 3.0; ECHORC herbicidal rating ([1]; 0.0620 kg/ha): 3.0; ECHORC herbicidal rating ([1]; 0.1250 kg/ha): 5.0; ECHORC herbicidal rating ([1]; 0.2500 kg/ha): 7.0; MOOVA herbicidal rating ([3]; 0.0320 kg/ha): 6.0; MOOVA herbicidal rating ([3]; 0.0620 kg/ha): 6.0; MOOVA herbicidal rating ([3]; 0.1250 kg/ha): 7.0; MOOVA herbicidal rating ([3]; 0.2500 kg/ha): 9.0
10 | Cn1c(C(F)(F)F)cc(=O)n(-c2ccc3snc(Br)c3c2)c1=O [Example 36, 3-(3-Bromo-1,2-benzisothiazol-5-yl)-1-methyl-6-(trifluoromethyl)-2,4(1H,3H)-pyrimidinedione] | – | – | – | – | – | – | – | – | – | – | – | – | 0.0 | 0.0 | 0.0 | 0.0 | 1.0 | 1.0 | 1.0 | 1.0 | –
